In ChEMBL document CHEMBL1124732, “Synthesis, conformation, and immunosuppressive activities of three analogues of cyclosporin A modified in the 1-position” (1990):

Experiment: Relative immunosuppressive activity tested against inhibition of concanavalin A stimulated thymocytes
Format: functional
Parameters: scale not given: the % may be the effect or the level left

CC#CC[C@@H](C)[C@@H](O)[C@H]1C(=O)N[C@@H](CC)C(=O)N(C)CC(=O)N(C)[C@@H](CC(C)C)C(=O)N[C@@H](C(C)C)C(=O)N(C)[C@@H](CC(C)C)C(=O)N[C@@H](C)C(=O)N[C@H](C)C(=O)N(C)[C@@H](CC(C)C)C(=O)N(C)[C@@H](CC(C)C)C(=O)N(C)[C@@H](C(C)C)C(=O)N1C
Activity: 10%
